Measurements: the supplement of paper PMC10307832

Tests used:
Test in all cases: relative viability (nuclei count vs DMSO), 5 days (fraction); higher = more cells survive
CUDC-101 + Trametinib = compound: C#Cc1cccc(Nc2ncnc3cc(OC)c(OCCCCCCC(=O)NO)cc23)c1 [CUDC-101] + CC(=O)Nc1cccc(-n2c(=O)n(C3CC3)c(=O)c3c(Nc4ccc(I)cc4F)n(C)c(=O)c(C)c32)c1 [Trametinib] (partner 0.02 µM)
In short: (§1)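 A single step with final 0.05% Triton X-100, 1% formaldehyde and 1 ug/ml Hoechst fixed the cells and stained nuclei 5 days after treatment. Lung cancer cell lines in 1536-well plates had been treated by pin tool the day after seeding with one drug alone or a fixed anchor-drug dose plus five library-drug doses (not always all listed) in √10 steps, and nuclei were counted on 4× images. Relative viability is the ratio of nuclei in treated wells to nuclei in vehicle wells, taken as the median of duplicate plates.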

CUDC-101 + Pictilisib = compound: C#Cc1cccc(Nc2ncnc3cc(OC)c(OCCCCCCC(=O)NO)cc23)c1 [CUDC-101] + CS(=O)(=O)N1CCN(Cc2cc3nc(-c4cccc5[nH]ncc45)nc(N4CCOCC4)c3s2)CC1 [Pictilisib] (partner 1 µM)
In short: as §1

[1] = compound: C1=CC=C2C(=C1)N=C(S2)C(C#N)C3=NC(=NC=C3)NCCC4=CN=CC=C4 + Nc1ncn([C@H]2C[C@H](O)[C@@H](CO)O2)c(=O)n1 [Decitabine] (partner 2 µM)
In short: as §1

Vandetanib + Pictilisib = compound: COc1cc2/c(=N/c3ccc(Br)cc3F)nc[nH]c2cc1OCC1CCN(C)CC1 [Vandetanib] + CS(=O)(=O)N1CCN(Cc2cc3nc(-c4cccc5[nH]ncc45)nc(N4CCOCC4)c3s2)CC1 [Pictilisib] (partner 1 µM)
In short: as §1

Cell Line	relative viability (CUDC-101 + Trametinib; first compound 0.01 µM)	relative viability (CUDC-101 + Trametinib; first compound 0.03162 µM)	relative viability (CUDC-101 + Trametinib; first compound 0.1 µM)	relative viability (CUDC-101 + Trametinib; first compound 0.3162 µM)	relative viability (CUDC-101 + Trametinib; first compound 1 µM)	relative viability (CUDC-101 + Pictilisib; first compound 0.01 µM)	relative viability (CUDC-101 + Pictilisib; first compound 0.03162 µM)	relative viability (CUDC-101 + Pictilisib; first compound 0.1 µM)	relative viability (CUDC-101 + Pictilisib; first compound 0.3162 µM)	relative viability (CUDC-101 + Pictilisib; first compound 1 µM)	relative viability ([1]; first compound 0.01581 µM)	relative viability ([1]; first compound 0.05 µM)	relative viability ([1]; first compound 0.1581 µM)	relative viability ([1]; first compound 0.5 µM)	relative viability (Vandetanib + Pictilisib; first compound 0.02 µM)	relative viability (Vandetanib + Pictilisib; first compound 0.06325 µM)	relative viability (Vandetanib + Pictilisib; first compound 0.2 µM)	relative viability (Vandetanib + Pictilisib; first compound 0.6325 µM)	relative viability (Vandetanib + Pictilisib; first compound 2 µM)	relative viability ([1]; first compound 0.005 µM)
NCI-H23	0.338	0.357	0.413	0.373	0.351	0.518	0.549	0.457	0.435	0.464	0.306	0.329	0.323	0.338	0.423	0.427	0.509	0.424	0.506	
NCI-H322M	0.507	0.477	0.517	0.44	0.411	0.522	0.546	0.439	0.417	0.353	0.773	0.775	0.711	0.736	0.397	0.517	0.498	0.459	0.351	0.579
NCI-H358	0.142	0.135	0.119	0.143	0.115	0.354	0.37	0.349	0.397	0.258	0.21	0.221	0.216	0.206	0.285	0.328	0.331	0.316	0.241	0.234
NCI-H441	0.639	0.439	0.371	0.65	0.41	0.694	0.537	0.561	0.497	0.401	0.303	0.252	0.246	0.239	0.333	0.49	0.425	0.527	0.452	0.267
NCI-H460	0.108	0.224	0.227	0.182	0.0486	0.375	0.358	0.315	0.453	0.287	0.612	0.529	0.592	0.464	0.351	0.359	0.349	0.371	0.331	
NCI-H520	0.572	0.688	0.788	0.674	0.251	0.307		0.305	0.251	0.214	0.449	0.482	0.616	0.513	0.289	0.258	0.245	0.345	0.263	0.46
NCI-H596	0.817	0.776	0.848	0.874	0.801	0.403	0.382	0.422	0.384	0.68	1	1	0.919	0.985	0.395	0.35	0.323	0.398	0.352	0.711
NCI-H647	0.461	0.411	0.543	0.538	0.443	0.446	0.512	0.576	0.491	0.361	0.442	0.33	0.353	0.284	0.457	0.419	0.349	0.412	0.161	0.356
NCI-H650	1.06	0.864	1.08	1.16	0.911	0.856	0.888	1.05	0.705	0.51	0.356	0.319	0.338	0.325	0.809	0.849	0.884	0.908	0.811	0.316
NCI-H661	0.566	0.529	0.609	0.542	0.374	0.477	0.422	0.476	0.487	0.358	0.52	0.529	0.622	0.589	0.381		0.373	0.382	0.347	0.467
NCI-H727	0.394	0.374	0.418	0.371	0.353	0.412	0.355	0.283	0.286	0.27	0.879	0.983	1	0.786	0.33	0.272	0.341	0.325	0.309	0.992
NCI-H838	0.579	0.504	0.544	0.591	0.423	0.516	0.508	0.683	0.628	0.397	0.461	0.425	0.47	0.445	0.461	0.357	0.457	0.426	0.415	0.435
NCI-H1355	0.423	0.399	0.411	0.46	0.317	0.485	0.44	0.491	0.38	0.277	0.376	0.381	0.358	0.366	0.438	0.367	0.425	0.496	0.482	0.367
NCI-H1395	1.13	1.05	1.01	1.19	0.981	0.59	0.682	0.564	0.652	0.581		0.732	0.769	0.742	0.687	0.61	0.656	0.697	0.418	0.721
NCI-H1437	0.54	0.528	0.498	0.468	0.263	0.4	0.44	0.46	0.375	0.149	0.6	0.508	0.602	0.548	0.463	0.419	0.432	0.357	0.481	0.484
NCI-H1650	0.637	0.477	0.494	0.588	0.372	0.57	0.552	0.559	0.446	0.293	0.333	0.496	0.432	0.407	0.561	0.511		0.555	0.515	0.335
